Results reported in patent publication US20240391923A1, “METHIONINE ADENOSYLTRANSFERASE 2A INHIBITOR FOR TREATING MTAP DELETION-TYPE CANCER” (SUZHOU GENHOUSE BIO CO., LTD., priority 2022, published 2024).
Read-outs that look alike come from different tables or passages of the source.

How the values were obtained:
[1] = biological target: MAT2A recombinant protein (Homo sapiens, UniProt P31153); test: MAT2A inhibitory activity (malachite green colorimetric enzyme assay); type: biochemical
Source text: MAT2A catalyzes the reaction of L-methionine and ATP to generate S-adenosylmethionine (SAM), inorganic phosphonic acid, and inorganic diphosphonic acid. Malachite green reacts with inorganic phosphonic acid to generate a green product, and the enzyme activity of MAT2A can be indirectly reflected by detecting the content of the inorganic phosphonic acid in a sample.
The test compounds were formulated using DMSO and diluted 1:3 diluted through 10 concentration points to give a final starting concentration in the reaction system of 1000 nM. The test compounds at different concentrations described above were transferred to a 384-well plate. Experimental buffer (50 mM HEPES pH 7.5, 50 mM KCl, 10 mM MgCl2, 10 mM DTT) was prepared. 2×MAT2A recombinant protein was prepared using the buffer and added to a 384-well plate. A mixed solution of 2×L-methionine and ATP was prepared using the buffer, and added to a 384-well plate. The enzymatic reaction was started, and the reaction was carried out at room temperature for 60 min. 20 μL of a colorimetric detection reagent was added to the above system, and incubated at room temperature for 15 min. The absorbance at 630 nm was measured. The inhibition rate of the compound on the enzyme activity was calculated, and the inhibition rate value and the logarithm value of the compound concentration were fitted using non-linear regression (dose response-variable slope) to give the IC50 value of the test compound.

[2] = test system: HCT116-MTAP-knockout (−/−) cell strain; test: Tumor cell proliferation inhibition assay (CellTiter-Glo), HCT116-MTAP-knockout (-/-); type: cell-based; conditions: Homo sapiens, 120 h, 5-day treatment
Description: (§1) After the HCT116-MTAP-knockout (−/−) cell strain, the HCT116-MTAP wild-type(+/+)-cell strain, the DOHH-2 cell strain, or the Hut-78 cell strain was treated with the test compound for 5 days, the ATP level was measured using a CellTiter-Glo kit of Promega to evaluate the inhibition of the test compound against the growth of the tumor cell strain.
(§2) In the present application, the HCT116-MTAP-knockout (−/−) cell strain, the HCT116-MTAP wild-type (+/+)-cell strain, the DOHH-2 cell strain, or the Hut-78 cell strain was seeded into a 96-well cell culture plate at an appropriate cell density. After 24 h, the cells were treated using the test compounds diluted 1:3 fold at the highest concentration of 10 μM for 10 gradients, and a DMSO treatment group was set up separately. The cells were cultured in a 37° C./5% CO2 incubator for 5 days.

[3] = test system: SDMA in HCT116-MTAP-knockout cell line; test: Cell symmetric dimethylarginine (SDMA) test, In-cell Western, HCT116-MTAP-knockout; type: cell-based; conditions: Homo sapiens, 96 h
[4] = test system: SDMA in human colon cancer cell line HCT116; test: Cell symmetric dimethylarginine (SDMA) test, In-cell Western, HCT116 (MTAP wild-type); type: cell-based; conditions: Homo sapiens, HCT-116, 96 h
Source text: MAT2A catalyzes the reaction of L-methionine and ATP to generate SAM, inorganic phosphonic acid, and inorganic diphosphonic acid. SAM is an important methyl donor, and is a substrate of arginine methyltransferase 5 (PRMT5). PRMT5 catalyzes SDMA modification of multiple proteins within a cell. The intracellular SDMA modification level was detected by ICW (In-cell Western), and the inhibition of the test compound on the enzymatic activity of intracellular MAT2A was indirectly reflected.
In the present application, the human colon cancer cell line HCT116 and the corresponding HCT116-MTAP-knockout cell line were seeded into a 96-well cell culture plate at an appropriate cell density. After 24 h, the cells were treated using the test compounds diluted 1:4 fold at the highest concentration of 6 μM for 6 gradients, and a DMSO treatment group was set up separately. The cells were cultured in a 37° C./5% CO2 incubator for 4 days. To test the inhibitory activity of the test compounds against tumor cell SDMA, the medium was discarded, and the plate was washed 3 times with PBST. 4% paraformaldehyde was then used at room temperature for fixation for 20 min. The fixation solution was discarded, the plate was washed 3 times with PBST, and a special blocking solution was added to each well for blocking at room temperature for 2 h. The blocking solution was discarded. After the plate was washed 3 times with PBST, the plate was incubated with SDMA antibody at 4° C. overnight. The next day, the plate was washed 3 times with PBST. The secondary antibody and DRAQ5 were diluted to an appropriate concentration with the blocking solution, and incubated at room temperature for 2 h; the plate was washed 3 times with PBST, and the fluorescence signals at 700 nm and 800 nm were detected using a Li—COR Odyssey two-color near-infrared laser imager.
The data was then processed. After the corresponding background value was subtracted from each well, statistical analysis was performed on the 800 nm/700 nm ratio for each well, a sigmoidal dose-inhibition curve was plotted using a non-linear regression model, and IC50 values were fitted and calculated. Inhibition Rate (%)=(1−SDMA dose/SDMA DMSO control)*100. SDMA dose is the value of the drug treatment group, and SDMA DMSO control is the value of the DMSO control group.

[5] = test system: HCT116-MTAP wild-type (+/+)-cell strain; test: Tumor cell proliferation inhibition assay (CellTiter-Glo), HCT116-MTAP wild-type (+/+); type: cell-based; conditions: Homo sapiens, 120 h, 5-day treatment
Description: as §1, §2

[6] = IC50 score class, read-out: MAT2A Inhibition (score)
[7] = HCT116-MTAP-knockout (−/−) cells, IC50 score, read-out: Tumor cell 5-day relative growth inhibition (HCT116-MTAP−/−) (nM), score
[8] = HCT116-MTAP-knockout (−/−) cells, IC50 value, read-out: Tumor cell 5-day relative growth inhibition (HCT116-MTAP−/−)
[9] = IC50 score class, read-out: Cell 96 h SDMA Inhibition (HCT116-MTAP−/−) (score)
[10] = read-out: Cell 96 h SDMA Inhibition (HCT116-MTAP−/−)
[11] = IC50 score class, read-out: Cell 96 h SDMA Inhibition (HCT116-MTAP+/+) (score)
[12] = read-out: Cell 96 h SDMA inhibition (HCT116-MTAP+/+)
[13] = HCT116-MTAP wild-type (+/+) cells, IC50 score, read-out: Tumor cell 5-day relative growth inhibition (HCT116-MTAP+/+) (nM), score
[14] = HCT116-MTAP wild-type (+/+) cells, IC50 value, read-out: Tumor cell 5-day relative growth inhibition (HCT116-MTAP+/+)
[15] = HCT116-MTAP+/+ cells, IC50 class score, read-out: Tumor cell 5-day relative growth inhibition (HCT116-MTAP+/+) (nM), score
[16] = HCT116-MTAP+/+ cells, read-out: Tumor cell 5-day relative growth inhibition (HCT116-MTAP+/+)
[17] = HCT116-MTAP−/− cells, IC50 class score, read-out: Tumor cell 5-day relative growth inhibition (HCT116-MTAP−/−) (nM), score
[18] = HCT116-MTAP−/− cells, read-out: Tumor cell 5-day relative growth inhibition (HCT116-MTAP−/−)

Sequence of MAT2A recombinant protein (P31153 whole entry): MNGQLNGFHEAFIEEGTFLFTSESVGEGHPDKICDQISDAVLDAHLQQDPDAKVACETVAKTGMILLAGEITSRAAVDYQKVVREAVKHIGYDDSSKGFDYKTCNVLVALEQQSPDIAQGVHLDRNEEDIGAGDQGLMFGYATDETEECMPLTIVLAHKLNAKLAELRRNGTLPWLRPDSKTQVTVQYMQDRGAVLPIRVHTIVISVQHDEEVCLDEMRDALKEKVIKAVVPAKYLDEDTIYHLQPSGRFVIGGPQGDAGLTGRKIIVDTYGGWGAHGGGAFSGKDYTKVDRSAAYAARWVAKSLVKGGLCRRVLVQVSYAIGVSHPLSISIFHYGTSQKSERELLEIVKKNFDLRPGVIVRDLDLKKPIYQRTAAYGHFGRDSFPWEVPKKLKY

SMILES	IC50 [1, 6]	IC50 ([1]; read-out: MAT2A Inhibition)	IC50 [3, 9]	IC50 [3, 10]	IC50 [4, 11]	IC50 [4, 12]	IC50 [5, 15]	IC50 [5, 16]	IC50 [2, 17]	IC50 [2, 18]	also measured
CCn1cc2c(n1)c(=O)n(-c1ccccc1)c1cc(Cl)ccc21 [Compound B2]	0.1 to 1 µM	0.105 µM	–	–	–	–	–	–	–	–	IC50 [2, 7]: ≥ 2000 nM; IC50 [2, 8]: 2830 nM
Cn1cc2c(n1)c(=O)n(Cc1cn[nH]c1)c1cc(Cl)ccc21 [Compound B235]	0.1 to 1 µM	0.668 µM	> 3 µM	4.29 µM	> 3 µM	> 3 µM	–	–	–	–	–
O=c1c2nn(C(F)F)cc2c2cc(F)c(Cl)cc2n1-c1cccc2[nH]ncc12 [Compound B260]	< 0.1 µM	0.017 µM	< 0.2 µM	0.0575 µM	–	–	–	–	–	–	IC50 [2, 7]: < 500 nM; IC50 [2, 8]: 69.7 nM
Cn1cc2c(n1)c(=O)n(-c1cccc3[nH]ncc13)c1nc(C(F)(F)F)c(C#N)cc21 [Compound B281]	< 0.1 µM	0.03 µM	< 0.2 µM	0.025 µM	> 3 µM	> 10 µM	–	–	–	–	–
Cn1cc2c(n1)c(=O)n(-c1cccc3[nH]nc(Br)c13)c1cc(Cl)ccc21 [Compound B332]	< 0.1 µM	0.039 µM	< 0.2 µM	0.009 µM	> 3 µM	> 10 µM	–	–	–	–	–
Cn1cc2c(n1)c(=O)n(-c1cccnc1C(F)(F)F)c1cc(Cl)c(F)cc21 [Compound B342]	–	–	–	–	–	–	–	–	–	–	IC50 [5, 13]: ≥ 2000 nM; IC50 [5, 14]: > 10000 nM; IC50 [2, 7]: < 500 nM; IC50 [2, 8]: 355 nM
Cn1cc2c(n1)c(=O)n(-c1cccnc1C1CC1)c1cc(Cl)c(C#N)cc21 [Compound B348]	–	–	–	–	–	–	–	–	–	–	IC50 [5, 13]: ≥ 2000 nM; IC50 [5, 14]: ≥ 10000 nM; IC50 [2, 7]: ≥ 2000 nM; IC50 [2, 8]: > 10000 nM
Cn1cnc2c(=O)n(-c3cccc4[nH]ncc34)c3cc(Cl)c(C#N)cc3c21 [Compound B375]	–	–	–	–	–	–	–	–	–	–	IC50 [5, 13]: ≥ 2000 nM; IC50 [5, 14]: > 10000 nM; IC50 [2, 7]: ≥ 2000 nM; IC50 [2, 8]: > 10000 nM
Cn1cc2c(n1)c(=O)n(-c1cccc3[nH]ncc13)c1cc(C(F)(F)F)c(C#N)cc21 [Compound B391]	< 0.1 µM	0.01 µM	< 0.2 µM	0.011 µM	> 3 µM	> 10 µM	–	–	–	–	–
CCOc1ccc2c3cn(C)nc3c(=O)n(-c3ccc(OC(F)F)cc3)c2n1 [Compound B400]	–	–	–	–	–	–	≥ 2000 nM	> 10000 nM	≥ 2000 nM	> 10000 nM	–
Cn1cnc2c(=O)n(-c3ccc4ncccc4c3)c3nc(C(F)(F)F)ccc3c21 [Compound B401]	–	–	–	–	–	–	≥ 2000 nM	> 10000 nM	≥ 2000 nM	> 10000 nM	–

Continued, in another order:

IC50 [1, 6]	IC50 ([1]; read-out: MAT2A Inhibition)	IC50 [3, 9]	IC50 [3, 10]	IC50 [4, 11]	IC50 [4, 12]	IC50 [5, 15]	IC50 [5, 16]	IC50 [2, 17]	IC50 [2, 18]	SMILES	also measured
–	–	–	–	–	–	≥ 2000 nM	> 10000 nM	≥ 2000 nM	> 10000 nM	Cn1cnc2c(=O)n(-c3cncc4ccccc34)c3nc(C(F)(F)F)ccc3c21 [Compound B406]	–
–	–	–	–	–	–	≥ 2000 nM	> 10000 nM	≥ 2000 nM	> 10000 nM	Cn1cnc2c(=O)n(-c3cccc4ccncc34)c3nc(C(F)(F)F)ccc3c21 [Compound B407]	–
–	–	–	–	–	–	≥ 2000 nM	> 10000 nM	≥ 2000 nM	> 10000 nM	Cn1cnc2c(=O)n(-c3cccc4ncccc34)c3nc(C(F)(F)F)ccc3c21 [Compound B408]	–
–	–	–	–	–	–	≥ 2000 nM	4040 nM	500 to 2000 nM	1530 nM	O=c1c2n[nH]cc2c2ccc(C(F)(F)F)nc2n1-c1ccccc1Cl [Compound B409]	–
< 0.1 µM	0.01 µM	< 0.2 µM	0.0052 µM	> 3 µM	> 10 µM	–	–	–	–	Cn1cc2c(n1)c(=O)n(-c1cccc3[nH]nc(F)c13)c1cc(Cl)c(F)cc21 [Compound B411]	–
< 0.1 µM	0.0064 µM	< 0.2 µM	0.0058 µM	> 3 µM	> 10 µM	–	–	–	–	Cn1cc2c(n1)c(=O)n(-c1cccc3[nH]nc(Cl)c13)c1cc(Cl)c(F)cc21 [Compound B412]	–
< 0.1 µM	0.0074 µM	< 0.2 µM	0.0091 µM	> 3 µM	> 10 µM	–	–	–	–	Cn1cc2c(n1)c(=O)n(-c1cccc3[nH]nc(Br)c13)c1cc(Cl)c(F)cc21 [Compound B413]	–
